# Laboratory results: PMC11762167, “G Protein-Coupled Receptor 17 Inhibits Glucagon-like Peptide-1 Secretion via a Gi/o-Dependent Mechanism in Enteroendocrine Cells” (Biomolecules, 2024)
# Assays:
# mGPR17 [1] = target: T1, mGPR17 (Mus musculus, UniProt Q6NS65); assay: Calcium flux in GLUTag cells expressing mGPR17; assay type: cell-based; parameters: host or cells: GLUTag cells, adenoviral transduction; conditions: for Mean Diff. (Tukey's multiple comparisons test, Figure 4C): mGPR17
# Protocol: (§1) GLUTag cells were maintained in Dulbecco’s Modified Eagle Medium (DMEM) supplemented with 10% fetal bovine serum and 1% penicillin–streptomycin in a humidified incubator at 37 °C and 5% CO2. For adenovirus transduction, GLUTag cells were seeded into poly-D-lysine coated 96-well plates or 4-chamber slides. The next day, cells were transduced with adenoviruses (100–1250 viral particles per cell at time of seeding) as indicated. After 24–30 h, adenovirus-containing media was changed to serum-free growth media for overnight serum starvation. The following day, GLUTag cells were used for cAMP or calcium signaling assays, GLP-1 secretion assays, or immunostaining and imaging.
# (§2) GLUTag cells were seeded into black, clear bottom, poly-D-lysine-coated 96-well plates. Cells were transduced and serum starved as specified above. Growth medium was then replaced with 100 μL/well assay buffer (HBSS, 20 mM HEPES, pH 7.4) and 100 μL/well Calcium 6 loading dye (R8190; Molecular Devices, San Jose, CA, USA). During dye loading, cells were incubated at 37 °C and 5% CO2 for 2 h. MDL29,951 or KCl was added to the wells and fluorescence (485 nm excitation, 525 nm emission, and 515 nm automatic emission cutoff) was measured using a Molecular Devices FlexStation3 (Molecular Devices) at 37 °C. For experiments with PTX, cells were pretreated with 100 ng/mL PTX overnight and 100 ng/mL PTX was included with Calcium 6 loading dye for calcium flux assays. For experiments with YM-254890, cells were pretreated for 30 min at 37 °C.
# mGPR17 [2] = target: T1, mGPR17; assay: GLP-1 secretion from GLUTag cells expressing mGPR17; assay type: cell-based; parameters: host or cells: GLUTag cells, adenoviral transduction; conditions: 100 µM MDL29,951, GLUTag mGPR17
# Protocol: as §1
# GLUTag cells were seeded into poly-D-lysine-coated 96-well plates and transduced with adenovirus as specified above and then tested for GLP-1 secretion. Medium was removed and cells were washed two times with GLP-1 secretion buffer (138 mM NaCl, 4.5 mM KCl, 4.2 mM NaHCO3, 2.5 mM CaCl2, 1.2 mM MgCl2, 10 mM HEPES, 1 mM glucose, and 0.1% bovine serum albumin, pH 7.4). […] Plates were then centrifuged at 300× g for 1 min at 4 °C, and 75 µL of the supernatant was removed and frozen at −80 °C until subsequent GLP-1 quantification. Total GLP-1 was quantified using the Meso Scale Discovery Total GLP-1 V-PLEX kit (Rockville, MD, USA; K1503PD) according to manufacturer’s instructions. […]
# mGPR17 [3] = target: T1, mGPR17; assay: GloSensor cAMP in HEK293 cells transfected with mGPR17; assay type: cell-based; parameters: host or cells: GLUTag cells, adenoviral transduction
# Protocol: (§3) HEK293 cells were maintained and transfected as previously described.
# (§4) Live-cell, real-time cAMP measurements were performed using Promega (Madison, WI, USA) GloSensor cAMP luminescent biosensor technology. Glosensor cAMP experiments were conducted as previously described in GLUTag cells and HEK293 cells.
# GLUTag cells [4] = assay: GLP-1 secretion from control-transduced or untransduced GLUTag cells; assay type: cell-based, murine
# Protocol: as §1
# GLUTag cells were seeded into poly-D-lysine-coated 96-well plates and transduced with adenovirus as specified above and then tested for GLP-1 secretion. Medium was removed and cells were washed two times with GLP-1 secretion buffer (138 mM NaCl, 4.5 mM KCl, 4.2 mM NaHCO3, 2.5 mM CaCl2, 1.2 mM MgCl2, 10 mM HEPES, 1 mM glucose, and 0.1% bovine serum albumin, pH 7.4). Cells were stimulated for 2 h with indicated treatments diluted in GLP-1 secretion buffer for a total volume of 200 µL/well at 37 °C and 5% CO2. Plates were then centrifuged at 300× g for 1 min at 4 °C, and 75 µL of the supernatant was removed and frozen at −80 °C until subsequent GLP-1 quantification. Total GLP-1 was quantified using the Meso Scale Discovery Total GLP-1 V-PLEX kit (Rockville, MD, USA; K1503PD) according to manufacturer’s instructions. For PTX treatment conditions, cells were pretreated with 100 ng/mL PTX overnight. For experiments with YM-254890, cells were pretreated for 15 min at 37 °C and 5% CO2.
# hGPR17S [5] = target: T2, hGPR17S (Homo sapiens, UniProt Q13304); assay: Calcium mobilization in HEK293 cells transfected with hGPR17S; assay type: cell-based
# T2 construct: host or cells: HEK293 cells (ATCC CRL-1573), transient transfection
# T2 sequence (Q13304 29-367): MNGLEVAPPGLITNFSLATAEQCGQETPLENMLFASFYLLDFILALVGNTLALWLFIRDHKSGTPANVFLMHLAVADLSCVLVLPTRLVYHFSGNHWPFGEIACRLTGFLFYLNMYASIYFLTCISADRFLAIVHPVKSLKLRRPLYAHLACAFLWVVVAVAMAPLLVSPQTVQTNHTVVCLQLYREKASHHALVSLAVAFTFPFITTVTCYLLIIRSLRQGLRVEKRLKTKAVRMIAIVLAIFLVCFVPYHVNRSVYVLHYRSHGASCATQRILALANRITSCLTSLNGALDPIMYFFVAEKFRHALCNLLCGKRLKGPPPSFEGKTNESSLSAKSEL
# Protocol: as §3
# Calcium flux in HEK293 cells was measured as previously described.
# hGPR17S [6] = target: T2, hGPR17S; assay: Membrane β-arrestin recruitment in HEK293 cells transfected with hGPR17S; assay type: cell-based
# Protocol: Membrane β-arrestin recruitment measurements were conducted using a luminescent membrane β-arrestin recruitment reporter assay. HEK293 cells were seeded into white, opaque, poly-D-lysine-coated 96-well plates and transiently transfected using Lipofectamine 3000 (Thermo Fisher Scientific, Waltham, MA, USA) according to the manufacturer’s protocol on the following day. At 48 h post-transfection, cells were washed twice with assay buffer (HBSS, 20 mM HEPES, pH 7.4) and allowed to equilibrate to room temperature for 15 min in assay buffer. Cells were then loaded with coelenterazine h (Nanolight Technology, Prolume Ltd., Lakeside, AZ, USA; 5 µM final concentration) for 5 min in the dark. Luminescence was read using a SpectraMax iD3 (Molecular Devices) with 1 s integration time. Baseline luminescence was read every 2 min for 6 min. Agonist was added and then luminescence was read every 2 min for 30 min.
# hGPR17S [7] = target: T2, hGPR17S; assay: GloSensor cAMP in HEK293 cells transfected with hGPR17S; assay type: cell-based
# Protocol: as §3, §4
# GLUTag cells [8] = assay: Calcium flux (Calcium 6) in control-transduced GLUTag cells; assay type: cell-based, murine; parameters: Mean Diff.: unit not given here; conditions: for Mean Diff.: Figure 1B, Ctl
# Protocol: as §1, §2
# [9] = log [MDL29,951] (M) -4.5 vs. Vehicle
# [10] = log [MDL29,951] (M) -5.0 vs. Vehicle
# [11] = log [MDL29,951] (M) -5.5 vs. Vehicle
# [12] = log [MDL29,951] (M) -6.0 vs. Vehicle
# [13] = log [MDL29,951] (M) -6.4 vs. Vehicle
# [14] = log [MDL29,951] (M) -6.9 vs. Vehicle
# [15] = log [MDL29,951] (M) -7.4 vs. Vehicle
# [16] = log [MDL29,951] (M) -7.9 vs. Vehicle
# [17] = log [MDL29,951] (M) -8.3 vs. Vehicle
# [18] = log [MDL29,951] (M) -8.8 vs. Vehicle
# [19] = 3 µM forskolin, read-out: cAMP Potency EC50 (reversal of inhibition)
# [20] = 3 µM forskolin-stimulated GloSensor cAMP, read-out: cAMP Potency IC50
# [21] = 100 μM MDL29,951, 3 µM forskolin
# T1 sequence (Q6NS65 whole entry): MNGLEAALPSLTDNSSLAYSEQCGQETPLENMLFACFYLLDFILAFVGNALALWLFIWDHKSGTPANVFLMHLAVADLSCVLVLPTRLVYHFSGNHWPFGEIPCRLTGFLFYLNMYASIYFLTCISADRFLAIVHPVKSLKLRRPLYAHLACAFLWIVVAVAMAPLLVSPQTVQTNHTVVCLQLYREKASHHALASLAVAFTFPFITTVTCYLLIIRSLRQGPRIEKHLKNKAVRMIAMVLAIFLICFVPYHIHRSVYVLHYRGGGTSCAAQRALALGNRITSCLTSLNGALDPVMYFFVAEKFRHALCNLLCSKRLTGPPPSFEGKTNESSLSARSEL
smiles,measurement,setting,value
"O=C(O)CCc1c(C(=O)O)[nH]c2cc(Cl)cc(Cl)c12 [MDL29,951]","maximal calcium stimulation, % of the hGPR17L-WT response",mGPR17 [1]; GLUTag mGPR17,74 ± 2.7%
same,"pEC50, calcium responses",mGPR17 [1]; GLUTag mGPR17,6.17 ± 0.04
same,EC50,"mGPR17 [1]; GLUTag mGPR17, read-out: EC50, calcium responses",680 nM
same,"Mean Diff. (Tukey's multiple comparisons test, Figure 4C)",mGPR17 [1]; [9],72.98
same,"Mean Diff. (Tukey's multiple comparisons test, Figure 4C)",mGPR17 [1]; [10],62.99
same,"Mean Diff. (Tukey's multiple comparisons test, Figure 4C)",mGPR17 [1]; [11],54.24
same,"Mean Diff. (Tukey's multiple comparisons test, Figure 4C)",mGPR17 [1]; [12],47.28
same,"Mean Diff. (Tukey's multiple comparisons test, Figure 4C)",mGPR17 [1]; [13],29.04
same,"Mean Diff. (Tukey's multiple comparisons test, Figure 4C)",mGPR17 [1]; [14],21.01
same,"Mean Diff. (Tukey's multiple comparisons test, Figure 4C)",mGPR17 [1]; [15],6.844
same,"Mean Diff. (Tukey's multiple comparisons test, Figure 4C)",mGPR17 [1]; [16],-0.1174
same,"Mean Diff. (Tukey's multiple comparisons test, Figure 4C)",mGPR17 [1]; [17],-1.354
same,"Mean Diff. (Tukey's multiple comparisons test, Figure 4C)",mGPR17 [1]; [18],-0.5799
same,effect on F/I-stimulated GLP-1 secretion,mGPR17 [2],significantly inhibited
same,cAMP Maximum Inhibition (% Inhibition),mGPR17 [3]; 3 µM forskolin,61±3.4%
same,cAMP Potency (pEC50) (reversal of inhibition),mGPR17 [3]; 3 µM forskolin,4.74±0.23
same,cAMP Potency (pIC50),mGPR17 [3]; 3 µM forskolin,8.48±0.20
same,EC50,mGPR17 [3]; [19],18000 nM
same,IC50,mGPR17 [3]; [20],3.3 nM
same,cAMP Effect of 100 μM MDL (% Inhibition),mGPR17 [3]; [21],45±6.3%
same,effect on F/I-stimulated GLP-1 secretion,"GLUTag cells [4]; 100 nM MDL29,951, control-transduced cells",no effect
same,effect on GLP-1 secretion under basal conditions,"GLUTag cells [4]; 100 nM or 100 µM MDL29,951, control-transduced",no effect
same,effect on F/I-stimulated GLP-1 secretion,"GLUTag cells [4]; 100 µM MDL29,951, control adenovirus",no effect
same,Calcium Emax (Mean Peak ΔF/F),hGPR17S [5],1.84±0.11
same,Calcium Potency (pEC50),hGPR17S [5],7.37±0.10
same,EC50,hGPR17S [5]; read-out: Calcium Potency EC50,43 nM
same,β-arrestin Emax (Peak ΔRLU/RLU),hGPR17S [6],0.50±0.04
same,β-arrestin Potency (pEC50),hGPR17S [6],6.62±0.08
same,EC50,hGPR17S [6]; read-out: β-arrestin Potency EC50,240 nM
same,cAMP Maximum Inhibition (% Inhibition),hGPR17S [7]; 3 µM forskolin,48±2.2%
same,cAMP Potency (pEC50) (reversal of inhibition),hGPR17S [7]; 3 µM forskolin,5.45±0.07
same,cAMP Potency (pIC50),hGPR17S [7]; 3 µM forskolin,8.83±0.09
same,EC50,hGPR17S [7]; [19],3600 nM
same,IC50,hGPR17S [7]; [20],1.5 nM
same,cAMP Effect of 100 μM MDL (% Inhibition),hGPR17S [7]; [21],13±3.7%
same,"peak ΔF/F, calcium flux","GLUTag cells [8]; 30 µM MDL29,951, control-transduced cells",0.01 ± 0.01
same,Mean Diff.,GLUTag cells [8]; [9],-0.01567
same,Mean Diff.,GLUTag cells [8]; [10],-0.01433
same,Mean Diff.,GLUTag cells [8]; [11],-0.0003333
same,Mean Diff.,GLUTag cells [8]; [12],0.0006667
same,Mean Diff.,GLUTag cells [8]; [13],0.01533
same,Mean Diff.,GLUTag cells [8]; [14],0.002
same,Mean Diff.,GLUTag cells [8]; [15],0.002667
same,Mean Diff.,GLUTag cells [8]; [16],0.004333
same,Mean Diff.,GLUTag cells [8]; [17],-0.001667
same,Mean Diff.,GLUTag cells [8]; [18],-0.0003333
